{"source": "patent US20260176250A1", "about": "“TRIAZINONE DERIVATIVES AS NLRP3 INHIBITORS” (Hoffmann-La Roche Inc., priority 2022, published 2026)", "key": {"NLRP3 [1]": {"molecular_target": "T1, NLRP3 (Homo sapiens, UniProt Q96P20)", "T1 sequence (Q96P20 whole entry)": "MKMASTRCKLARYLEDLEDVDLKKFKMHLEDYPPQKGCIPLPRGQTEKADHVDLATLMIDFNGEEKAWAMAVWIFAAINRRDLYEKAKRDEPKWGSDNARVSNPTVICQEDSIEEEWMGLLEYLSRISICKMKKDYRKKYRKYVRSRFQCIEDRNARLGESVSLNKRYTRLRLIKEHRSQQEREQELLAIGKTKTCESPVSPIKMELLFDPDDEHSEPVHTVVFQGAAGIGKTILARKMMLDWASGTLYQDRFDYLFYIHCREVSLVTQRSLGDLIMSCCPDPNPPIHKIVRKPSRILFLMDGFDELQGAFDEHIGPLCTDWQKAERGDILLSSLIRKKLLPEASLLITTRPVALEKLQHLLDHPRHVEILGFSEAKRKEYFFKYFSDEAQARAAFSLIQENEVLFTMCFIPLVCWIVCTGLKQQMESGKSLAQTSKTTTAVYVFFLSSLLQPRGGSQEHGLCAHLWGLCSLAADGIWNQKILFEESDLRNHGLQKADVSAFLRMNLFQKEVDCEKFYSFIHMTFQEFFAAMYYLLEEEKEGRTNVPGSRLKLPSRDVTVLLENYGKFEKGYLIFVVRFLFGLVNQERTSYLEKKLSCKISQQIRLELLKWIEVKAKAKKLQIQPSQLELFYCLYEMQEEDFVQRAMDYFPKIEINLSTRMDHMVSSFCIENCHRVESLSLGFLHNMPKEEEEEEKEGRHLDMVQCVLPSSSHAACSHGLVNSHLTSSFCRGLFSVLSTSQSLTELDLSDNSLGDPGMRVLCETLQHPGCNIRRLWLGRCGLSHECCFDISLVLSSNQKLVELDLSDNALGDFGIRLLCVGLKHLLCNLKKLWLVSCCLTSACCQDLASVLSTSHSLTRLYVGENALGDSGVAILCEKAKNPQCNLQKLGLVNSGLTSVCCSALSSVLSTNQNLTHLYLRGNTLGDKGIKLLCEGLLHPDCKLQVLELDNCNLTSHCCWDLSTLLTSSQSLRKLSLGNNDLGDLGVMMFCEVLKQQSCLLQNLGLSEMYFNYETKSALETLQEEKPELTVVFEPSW", "experiment": "THP-1 cells pyroptosis assay", "type": "cell-based", "conditions": "LPS 1 μg/ml, nigericin 5 μM, resazurin readout", "protocol": "THP-1 cells (ATCC #TIB-202) were grown in RPMI containing L-glutamine (Gibco #11835) supplemented with 1 mM sodium pyruvate (Sigma #S8636) and penicillin (100 units/ml)/streptomycin (0.1 mg/ml) (Sigma #P4333) in 10% Fetal Bovine Serum (FBS) (Sigma #F0804). The cells were routinely passaged and grown to confluency (˜10^6 cells/ml). On the day of the experiment, THP-1 cells were harvested and resuspended into RPMI medium (without FBS). The cells were then counted and viability (>90%) checked by Trypan blue (Sigma #T8154). Appropriate dilutions were made to give a concentration of 625,000 cells/ml. To this diluted cell solution was added LPS (Sigma #L4524) to give a 1 μg/ml Final Assay Concentration (FAC). 40 μl of the final preparation was aliquoted into each well of a 96-well plate. The plate thus prepared was used for compound screening.\nThe following method step-by-step assay was followed for compound screening. • 1. Seed THP-1 cells (25,000 cells/well) containing 1.0 μg/ml LPS in 40 μl of RPMI medium (without FBS) in 96-well, black walled, clear bottom cell culture plates coated with poly-D-lysine (VWR #734-0317) • 2. Add 5 μl compound (8 points half-log dilution, with 10 μM top dose) or vehicle (DMSO 0.1% FAC) to the appropriate wells • 3. Incubate for 3 hours at 37° C., 5% CO2 • 4. Add 5 μl nigericin (Sigma #N7143) (FAC 5 μM) to all wells • 5. Incubate for 1 hr at 37° C., 5% CO2 • 6. At the end of the incubation period, spin plates at 300xg for 3 mins and remove supernatant • 7. Then add 50 μl of resazurin (Sigma #R7017) (FAC 100 μM resazurin in RPMI medium without FBS) and incubate plates for a further 1-2 hours at 37° C. and 5% CO2 • 8. Plates were read in an Envision reader at Ex 560 nm and Em 590 nm • 9. IC50 data is fitted to a non-linear regression equation (log inhibitor vs response-variable slope 4-parameters)"}, "[2]": {"molecular_target": "T2, hERG cardiac potassium channel (Homo sapiens, UniProt Q12809)", "T2 construct": "host or cells: CHO crelox hERG cell line (Chinese hamster cells)", "T2 sequence (Q12809 whole entry)": "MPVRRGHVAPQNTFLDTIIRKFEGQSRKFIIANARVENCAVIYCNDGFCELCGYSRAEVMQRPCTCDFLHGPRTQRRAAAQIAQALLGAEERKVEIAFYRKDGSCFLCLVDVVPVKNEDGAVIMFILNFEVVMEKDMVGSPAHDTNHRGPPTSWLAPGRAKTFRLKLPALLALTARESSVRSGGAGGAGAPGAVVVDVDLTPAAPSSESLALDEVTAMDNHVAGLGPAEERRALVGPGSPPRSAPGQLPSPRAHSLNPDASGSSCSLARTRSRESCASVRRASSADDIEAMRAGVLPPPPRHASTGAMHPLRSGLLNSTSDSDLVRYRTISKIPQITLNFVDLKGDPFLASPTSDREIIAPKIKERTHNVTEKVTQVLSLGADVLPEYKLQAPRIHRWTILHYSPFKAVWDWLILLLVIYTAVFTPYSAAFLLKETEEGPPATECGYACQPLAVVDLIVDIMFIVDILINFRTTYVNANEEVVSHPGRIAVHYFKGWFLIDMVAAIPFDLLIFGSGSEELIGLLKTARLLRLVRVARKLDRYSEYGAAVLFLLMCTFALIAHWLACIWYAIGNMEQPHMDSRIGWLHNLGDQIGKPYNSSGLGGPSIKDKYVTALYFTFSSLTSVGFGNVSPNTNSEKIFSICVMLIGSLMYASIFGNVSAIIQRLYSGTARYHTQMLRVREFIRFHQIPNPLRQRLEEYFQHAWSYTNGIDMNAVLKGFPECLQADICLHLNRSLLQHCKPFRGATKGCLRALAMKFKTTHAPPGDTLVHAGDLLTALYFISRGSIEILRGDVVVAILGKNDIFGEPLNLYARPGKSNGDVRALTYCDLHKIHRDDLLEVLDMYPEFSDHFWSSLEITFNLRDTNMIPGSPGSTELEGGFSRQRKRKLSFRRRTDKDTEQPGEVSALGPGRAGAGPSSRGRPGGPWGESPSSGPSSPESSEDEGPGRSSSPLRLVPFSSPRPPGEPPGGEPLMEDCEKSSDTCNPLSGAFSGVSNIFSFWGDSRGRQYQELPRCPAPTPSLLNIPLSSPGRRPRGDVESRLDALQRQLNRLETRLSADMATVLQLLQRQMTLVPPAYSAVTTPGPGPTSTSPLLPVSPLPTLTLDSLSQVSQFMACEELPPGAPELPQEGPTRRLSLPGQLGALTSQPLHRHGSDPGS", "experiment": "hERG screening assay (automated patch clamp, CHO-hERG cells)", "type": "cell-based", "conditions": "CHO crelox hERG cell line (CHO cells that express hERG), whole-cell patch clamp, 35-37° C.", "from_the_text": "In the drug development process of small molecules, one of the most frequent adverse side effects, leading to the failure of drugs, is the cardiac arrhythmias. Such failure is often related to the capacity of the drug to inhibit the human ether-à-go-go-related gene (hERG) cardiac potassium channel. Having no or low inhibition of the hERG cardiac potassium channel is therefore considered as beneficial.\nThe CHO crelox hERG cell line (ATCC reference Nr. PTA-6812, female Chinese hamster cells) was generated and validated at Roche. Ready-to-use frozen instant CHO-hERG cells were cryopreserved at Evotec (Germany) and used directly in the experiments.\nThe extracellular solution contains (in mM): NaCl 150; KCl 4; CaCl2) 1; MgCl2 1; HEPES 10; pH 7.2-7.4 with NaOH, osmolarity 290-330 mOsm. […]\nThe effects of a compound on hERG K+-currents parameters will be evaluated at 2 concentrations in at least 4 cells.\nThe hERG test is performed using automated patch clamp system SynchroPatch® 384 (Nanion Technologies GmbH, Germany). K+ currents are measured with the patch-voltage-clamp technique in the whole-cell configuration at 35-37° C. […]\nThe amplitudes of IKhERG were recorded in each concentration of drug and they were compared to the vehicle control values (taken as 100%) to define fractional blocks. […]"}, "[3]": {"experiment": "Metabolic stability in human hepatocytes", "type": "in vitro ADME", "protocol": "Biological materials. Cryopreserved hepatocytes [mouse, rat, rabbit, monkey and human (male and female; mixed)] are obtained. Viability of hepatocytes after reconstitution is at least 80% throughout the study. Ready-to-use rat/human HepatoPac® cultures [long-term hepatocyte co-cultures; pooled (n=5 for male and n=5 for female for human)] with stromal mouse fibroblasts (negative control; pooled) with the plates for incubations, application medium and maintenance medium are acquired.\nMetabolism by suspended hepatocytes. Primary pooled cryopreserved hepatocytes are reconstituted in pre-warmed William's E media containing 10% FCS, 0.05 mg/mL streptomycin and 50 U/mL penicillin and 0.4 mM L-glutamine; and 0.01 mg/mL gentamicin, 0.048 mg/mL hydrocortisone and 0.004 mg/mL insulin, to a final suspension density of 1×10^6 cells/mL. The incubation was performed fully automatically with Liquid Handling System (Tecan) equipped with a CO2 incubator with an orbital shaker. After the addition of a test compound at e.g. 1 μM to the wells (1×10^5 cells/well), the 96-well hepatocyte suspension culture plates are incubated in a 5% CO2 at 37° C. Samples are quenched by addition of acetonitrile (including an internal standard) to the incubation well at the designated time points up to 2 h.\nMetabolism by HepatoPac®. […]\nSamples are then centrifuged appropriately and the supernatant analyzed by LC-MS/MS. […]"}, "NLRP3 [4]": {"molecular_target": "T1, NLRP3", "experiment": "Human whole blood IL-1β release assay", "type": "cell-based", "design": "Human whole blood in Li-heparin tubes was obtained from healthy donors; from tissue; host or cells: human whole blood from healthy donors", "conditions": "LPS 1 μg/ml, nigericin 10 μM, IL-1β AlphaLisa, read-out: Human whole blood IL-1ß Assay IC50", "protocol": "For systemic delivery, the ability to inhibit NLRP3 when the compounds are present within the bloodstream is of great importance. For this reason, the NLRP3 inhibitory activity of a number of compounds in human whole blood was investigated in accordance with the following protocol.\nHuman whole blood in Li-heparin tubes was obtained from healthy donors from a volunteer donor panel. • 1. Plate out 80 μl of whole blood containing 1 μg/ml of LPS in 96-well, clear bottom cell culture plate (Corning #3585) • 2. Add 10 μl compound (8 points half-log dilution with 10 μM top dose) or vehicle (DMSO 0.1% FAC) to the appropriate wells • 3. Incubate for 3 hours at 37° C., 5% CO2 • 4. Add 10 μl nigericin (Sigma #N7143) (10 μM FAC) to all wells • 5. Incubate for 1 hr at 37° C., 5% CO2 • 6. At the end of the incubation period, spin plates at 300xg for 5 mins to pellet cells and remove 20 μl of supernatant and add to 96-well v-bottom plates for IL-1β analysis (note: these plates containing the supernatants can be stored at −80° C. to be analysed at a later date) • 7. IL-1β was measured according to the manufacturer protocol (Perkin Elmer-AlphaLisa IL-1 Kit AL220F-5000) • 8. IC50 data is fitted to a non-linear regression equation (log inhibitor vs response-variable slope 4-parameters)"}}}
{"smiles": "CCN1CCC[C@@H](Nc2nnc(-c3ccc4c(c3O)CCC4)n(C)c2=O)C1", "note": "[Example 1, 6-[[(3R)-1-Ethyl-3-piperidyl]amino]-3-(4-hydroxyindan-5-yl)-4-methyl-1,2,4-triazin-5-one]", "values": [{"measurement": "IC50", "setting": "NLRP3 [1]", "result": 1.5, "unit": "nM"}, {"measurement": "IC20", "setting": "[2]", "result": "> 10000", "unit": "nM"}, {"measurement": "Clint at 1 μM", "setting": "[3]", "result": "<0.2", "unit": "μl/min/10E6 cells"}, {"measurement": "IC50", "setting": "NLRP3 [4]", "result": 8, "unit": "nM"}]}
{"smiles": "CCN1CCC[C@@H](Nc2nnc(-c3ccc4c(c3O)CC4)n(C)c2=O)C1", "note": "[Example 2]", "values": [{"measurement": "IC50", "setting": "NLRP3 [1]", "result": 5.8, "unit": "nM"}, {"measurement": "IC50", "setting": "NLRP3 [4]", "result": 10, "unit": "nM"}]}
{"smiles": "CCN1CCC[C@@H](N(C)c2nnc(-c3ccc4c(c3O)CCC4)n(C)c2=O)C1", "note": "[Example 3, 6-[[(3R)-1-Ethyl-3-piperidyl]-methyl-amino]-3-(4-hydroxyindan-5-yl)-4-methyl-1,2,4-triazin-5-one]", "values": [{"measurement": "IC50", "setting": "NLRP3 [1]", "result": 13, "unit": "nM"}, {"measurement": "IC50", "setting": "NLRP3 [4]", "result": 26, "unit": "nM"}]}
